# Measured values reported in patent publication US20190328721A1, “METHOD OF ACTIVATING DENDRITIC CELLS” (KOREA INSTITUTE OF SCIENCE AND TECHNOLOGY, priority 2018, published 2019).
# What was measured:
# [1] = system: CT26.CL25 colon cancer cells expressing mCherry; assay: Phagocytosis of mCherry-expressing cancer cells in the tumor model; format: in vivo, mice; conditions: conditions of Example 2-3
# Protocol: In order to confirm whether or not the ROCK inhibitor Y27632 induces cancer cell phagocytosis in a tumor model, CT26.CL25 colon cancer cells expressing mCherry were prepared and used to create a tumor model by injecting tumor cells into mice, and it was analyzed whether phagocytosis of macrophages and dendritic cells against cancer cells expressing mCherry was increased under the same conditions as in Example 2-3.
# [2] = system: B16F10-Ova; assay: B16F10-Ova tumor model, Y27632 combined with a chemotherapeutic; format: in vivo, mice; conditions: doxorubicin 5 mg/kg, Y27632 10 mg/kg
# Protocol: Specifically, tumor suppression was examined by administering 5 mg/kg of doxorubicin and 10 mg/kg of Y27632 alone or in combination to B16F10-Ova-bearing tumor model mice prepared as in Example 2-1. Doxorubicin was administered three times at intervals of 3 days from the 8th day after the injection of cancer cells, and Y27632 was administered at a dose of 10 mg/kg continuously for two consecutive days via intravenous injection followed by a day of rest as a cycle, followed by 3 cycles of 3-day intervals (FIG. 18A). The mice were sacrificed on the 20th day after the injection of cancer cells, the tumor tissue was excised, and ex vivo images were taken and the tumor tissues were weighed. Before the sacrifice of the mice, the tumor volumes over time were calculated as described above using calipers at intervals of 3 days from the 8th day after the injection of the cancer cells.
# In order to confirm whether CD8^+ T cells infiltrates into tumor tissues, tumor tissues excised from an experimental animal were sectioned and subjected to fluorescence immunohistochemistry using anti-CD8 antibodies.
# First, to determine the cisplatin therapeutic concentration, a B16F10-Ova tumor model was constructed in a nude mouse lacking T cell immunity and then an experiment was conducted to confirm the concentration of cisplatin having an anticancer effect similar to that of doxorubicin at 5 mg/kg. […] Thus, in order to evaluate the therapeutic effect of cisplatin and the ROCK inhibitor Y27632 in the B16F10-Ova-bearing tumor model, 3 mg/kg of cisplatin was administered according to the administration schedule shown in FIG. 18A.
# [3] = system: bone marrow-derived dendritic cells (BMDCs); assay: Phagocytosis of cancer cells by bone marrow-derived dendritic cells in vitro; format: cell-based, mice
# Protocol: Specifically, the present inventors prepared bone marrow-derived macrophages (BMDMs) differentiated from excised bone marrow of mice using M-CSF and bone marrow-derived dendritic cells (BMDCs) differentiated from excised bone marrow using Flt3L. The degree of differentiation was confirmed by flow cytometry analysis using antibodies specifically binding to F4/80 (BMDM marker) and CD11c (BMDC marker), respectively (FIGS. 2A and 2B).
# The prepared BMDMs and BMDCs were stained with 1 μM CellTracker Deep Red (Thermo Fisher Scientific, USA). 30 μM of Y27632 (Abcam, USA) or 30 μM of fasudil (Selleck Chemicals, USA) was added to each of 15×10^4 cells/ml of the stained macrophages and dendritic cells and incubated at 37° C. for 1 hour. As a negative control, macrophages or dendritic cells that were not incubated with Y27632 and fasudil were used.
# Bone marrow-derived macrophages or dendritic cells prepared in RPMI medium and cancer cell lines stained with 1 μM CellTracker CMFDA (Thermo Fisher Scientific, USA) were co-cultured at about 37° C. for about 2 hours. CT26.CL25, a colon cancer cell line, and B16F10-OVA, a melanoma cell line, were used as the cancer cells.
# Thereafter, the percentage of cancer cells was measured by flow cytometry, and the phagocytosis ratio of macrophages and dendritic cells against cancer cells was calculated. The results are shown in FIGS. 2C to 2F (left: cancer cell line CT26.CL25, right: cancer cell line B16F10-OVA).
# In order to more accurately analyze the phagocytosis of macrophages and dendritic cells against cancer cells according to the treatment of the ROCK inhibitor, the present inventors analyzed phagocytosis of the BMDMs and BMDCs against CT26.CL25 colon cancer cells using the pHrodo-SE dye, which changes in fluorescence depending on pH. When […], the pH of the cancer cells decreased and became red. When treated with Y27632 as described above for the above-mentioned phagocytosis response, the phagocytic activities of both the BMDMs and BMDCs against cancer cells were improved.
# The present inventors performed an experiment to confirm how long the phagocytosis of BMDMs and BMDCs against cancer cells due to the ROCK inhibitor is maintained. Specifically, BMDMs and BMDCs were pretreated with Y27632 for 1 hour, then Y27632 was removed, and immediately after 30 minutes, 1 hour, 2 hours, or 4 hours, the phagocytosis against CT26.CL25 and B16F10-Ova was measured using a flow cytometer. The other experimental conditions were the same as in Example 1-1.
# In order to confirm whether the ROCK inhibitor increases phagocytosis against cancer cells by acting on phagocytic cells (BMDMs or BMDCs) themselves, Y27632 was used to pretreat the phagocytic cells or cancer cells for 1 hour, and the phagocytic activity was analyzed using the same procedure described in Example 1-1. […]
# Phagocytic activity of bone marrow-derived dendritic cells (BMDCs) differentiated from bone marrow cells against cancer cells was analyzed by treating the BMDCs with ROCK inhibitor Y27632 (30 μM) for 1 hour and then co-cultivating with CT26.CL25 colon cancer cells pretreated with 25 μM of doxorubicin for 24 hours or B16F10-Ova malignant melanoma cells treated with 30 μM of Y27632 for 1 hour and then treated with 2.5 μM doxorubicin (Sigma-Aldrich, USA) for 24 hours by pHrodo SE (Thermo Fisher Scientific, USA) staining (BMDC:Dox-treated B16F10-Ova=1:1). As shown in FIGS. 16A to 16D, it was confirmed that the phagocytic activity of BMDCs induced by doxorubicin were increased in the Y27632-treated group compared to the control group (FIGS. 16A to 16D). […]
# [4] = system: OT-1 T cells; assay: Proliferation of injected CFSE-stained OT-1 T cells in B16F10-Ova-bearing mice; format: in vivo; conditions: 3 days after injection
# Protocol: Specifically, Y27632 was administered to the B16F10-Ova-bearing cancer model mice according to the administration schedule described in Example 2-1, and OT-1 T cells stained with CFSE (carboxyfluorescein succinimidyl ester, Thermo Fisher Scientific, Inc., USA) were injected into the cancer model mice and the degree of proliferation of T cells was confirmed 3 days later (FIG. 14A).
smiles,measurement,setting,value
C[C@@H](N)[C@H]1CC[C@H](C(=O)Nc2ccncc2)CC1 [Y27632],phagocytosis of tumor dendritic cells against cancer cells expressing mCherry,[1],increased about two-fold
same,phagocytosis of tumor macrophages against cancer cells expressing mCherry,[1],increased about two-fold
same,complete regression of the tumor,[2],not observed
same,infiltration of CD8+ T cells into tumor tissues,[2],slight infiltration
same,phagocytic activity of BMDCs against doxorubicin-treated cancer cells,"[3]; 30 μM, 1 hour, CT26.CL25 (25 μM doxorubicin) or B16F10-Ova (2.5 μM doxorubicin), 24 hours",increased
same,phagocytic ability of dendritic cells against cancer cells,"[3]; 30 μM, 1 hour, co-culture with CT26.CL25 or B16F10-OVA about 2 hours",significantly increased
same,phagocytic activity of BMDCs against cancer cells (pHrodo-SE dye),[3]; CT26.CL25 colon cancer cells,improved
same,"phagocytosis by BMDCs against cancer cells, cancer cells pre-treated",[3]; cancer cells pretreated for 1 hour,not increased
same,"phagocytosis against cancer cells, BMDCs pretreated",[3]; phagocytic cells pretreated for 1 hour,increased
same,time for which BMDCs maintain phagocytosis after the pretreatment,"[3]; pretreated 1 hour, then removed, CT26.CL25 and B16F10-Ova",≤ 1 h
same,proliferation of OT-1 T cells,[4],significantly increased
